Experimental data from the supplement of paper PMC13380429.

Legend:
Conditions in all cases: 72 h
HepG2 [1] = test: drug sensitivity score (DSS) for viability; higher = more toxic; extreme values may be limits of the assay
Vero E6 [2] = test: as above
Calu-3 [3] = test: as above
U2OS [4] = test: as above
Caco-2 [5] = test: as above
HepG2 [6] = test: cell viability relative to DMSO; higher = less toxic
Vero E6 [7] = test: as above
Calu-3 [8] = test: as above
U2OS [9] = test: as above
Caco-2 [10] = test: as above
HepG2 [11] = test: relative viability EC50 (midpoint between 100% and the lowest measured viability); higher = less toxic
Vero E6 [12] = test: as above
Calu-3 [13] = test: as above
U2OS [14] = test: as above
Caco-2 [15] = test: as above

Row | SMILES | drug sensitivity score (HepG2 [1]) | drug sensitivity score (Vero E6 [2]) | drug sensitivity score (Calu-3 [3]) | drug sensitivity score (U2OS [4]) | drug sensitivity score (Caco-2 [5]) | cell viability (HepG2 [6]; 1 nM) [%] | cell viability (HepG2 [6]; 10 nM) [%] | cell viability (HepG2 [6]; 100 nM) [%] | cell viability (HepG2 [6]; 1000 nM) [%] | cell viability (HepG2 [6]; 10000 nM) [%] | cell viability (Vero E6 [7]; 1 nM) [%] | cell viability (Vero E6 [7]; 10 nM) [%] | cell viability (Vero E6 [7]; 100 nM) [%] | cell viability (Vero E6 [7]; 1000 nM) [%] | cell viability (Vero E6 [7]; 10000 nM) [%] | cell viability (Calu-3 [8]; 1 nM) [%] | cell viability (Calu-3 [8]; 10 nM) [%] | cell viability (Calu-3 [8]; 100 nM) [%] | cell viability (Calu-3 [8]; 1000 nM) [%] | cell viability (Calu-3 [8]; 10000 nM) [%] | cell viability (U2OS [9]; 1 nM) [%] | cell viability (U2OS [9]; 10 nM) [%] | cell viability (U2OS [9]; 100 nM) [%] | cell viability (U2OS [9]; 1000 nM) [%] | cell viability (U2OS [9]; 10000 nM) [%] | cell viability (Caco-2 [10]; 1 nM) [%] | cell viability (Caco-2 [10]; 10 nM) [%] | cell viability (Caco-2 [10]; 100 nM) [%] | cell viability (Caco-2 [10]; 1000 nM) [%] | cell viability (Caco-2 [10]; 10000 nM) [%] | relative viability EC50 (HepG2 [11]) [µM] | relative viability EC50 (Vero E6 [12]) [µM] | relative viability EC50 (Calu-3 [13]) [µM] | relative viability EC50 (U2OS [14]) [µM] | relative viability EC50 (Caco-2 [15]) [µM]
1 | CCCCCCCC/C=C\CCCCCCCC(N)=O [oleamide] | 0 | 0 | 0 | 0 | 0 | 104 | 101 | 99.2 | 92.7 | 104 | 97.3 | 99.3 | 100 | 100 | 101 | 107 | 98.7 | 93.9 | 104 | 89.7 | 98.8 | 103 | 97.1 | 100 | 91.3 | 99.3 | 92.4 | 95.3 | 96.5 | 99.7 | > 10 | > 10 | > 10 | > 10 | > 10
2 | c1cc2c(c(N3CCNCC3)c1)OCCO2 [eltoprazine] | 0 | 0 | 0 | 0 | 0 | 97 | 101 | 92.2 | 92.4 | 95.7 | 96.5 | 96.5 | 97.9 | 91.9 | 103 | 92.4 | 76.5 | 97.7 | 108 | 107 | 98.4 | 99.6 | 92.9 | 93.6 | 88.2 | 105 | 97.1 | 106 | 108 | 101 | > 10 | > 10 | > 10 | > 10 | > 10
3 | CN[C@H](C(=O)N[C@H](C(=O)N(C)[C@H](/C=C(\C)C(=O)O)C(C)C)C(C)(C)C)C(C)(C)c1ccccc1 [taltobulin] | 35 | 33.4 | 24.3 | 36.3 | 29.8 | 73.5 | 28.9 | 28.6 | 34.8 | 33.1 | 88.5 | 39.6 | 25.2 | 17.9 | 18.1 | 82.8 | 58.4 | 46.7 | 39.6 | 38.8 | 73.8 | 31.8 | 17.3 | 18.5 | 17.7 | 68.3 | 45.6 | 34.3 | 35 | 35.9 | 0.0012 | 0.0044 | 0.0037 | 0.0021 | 0.0011
4 | CCC(NC(C)C)C(O)c1ccc(O)c(O)c1 (stereo not given) [isoetharine] | 0 | 0 | 0 | 0 | 0 | 102 | 96.7 | 104 | 101 | 102 | 93.1 | 91.8 | 92.9 | 91.9 | 102 | 108 | 98.9 | 88.4 | 103 | 95.6 | 90.2 | 97.3 | 95.1 | 95.4 | 94 | 85.9 | 100 | 118 | 102 | 104 | > 10 | > 10 | > 10 | > 10 | > 10
5 | N=C1CCCN1Cc1[nH]c(=O)[nH]c(=O)c1Cl [tipiracil] | 0 | 0 | 0 | 0 | 0 | 100 | 89.6 | 96.5 | 101 | 98.7 | 97.6 | 95.9 | 94.9 | 92.6 | 104 | 94.2 | 102 | 89.4 | 97.4 | 101 | 97.4 | 99 | 93.8 | 97.5 | 100 | 96.7 | 93.4 | 93.2 | 98.1 | 98.6 | > 10 | > 10 | > 10 | > 10 | > 10
6 | NS(=O)(=O)c1nn2cc(-c3ccccc3)nc2s1 [AEG3482] | 0 | 0 | 0 | 0 | 0.4 | 87.5 | 90.2 | 93 | 97 | 94.6 | 97.2 | 97 | 96.1 | 94.8 | 92.1 | 98 | 104 | 95.8 | 95.1 | 109 | 101 | 98.1 | 97.8 | 99.2 | 100 | 99.9 | 99 | 102 | 88.4 | 89.4 | > 10 | > 10 | > 10 | > 10 | > 10
7 | C[C@]12COC(=O)C[C@@H]1CC[C@@H]1[C@@H]2CC[C@@]2(C)[C@H]1CC[C@]2(C)O [Oxandrolone] | 0 | 0 | 0 | 0 | 0 | 102 | 94.9 | 104 | 99.4 | 90.8 | 104 | 98 | 98.4 | 104 | 98.2 | 98.3 | 98.4 | 96.8 | 103 | 110 | 101 | 99.4 | 99.7 | 102 | 104 | 106 | 101 | 100 | 99.4 | 106 | > 10 | > 10 | > 10 | > 10 | > 10
8 | Cc1cccc(-c2n[nH]cc2-c2ccc3ncccc3n2)n1 [repsox] | 0 | 1 | 0.7 | 0 | 0 | 100 | 104 | 98.8 | 95.9 | 91 | 102 | 97.8 | 103 | 89.5 | 84.8 | 95.1 | 94.4 | 98.6 | 101 | 78.4 | 96 | 101 | 92.4 | 93.4 | 94.8 | 94 | 98.2 | 95 | 105 | 95 | > 10 | > 10 | > 10 | > 10 | > 10
9 | Cc1cc(C)c(S(=O)(=O)Nc2ccccc2C(F)(F)F)c(C)c1 [o-3M3FBS] | 0 | 0 | 0 | 0 | 0 | 102 | 109 | 95.6 | 94.9 | 99.4 | 95.8 | 98.4 | 94.3 | 88.3 | 97.3 | 98.9 | 99.5 | 89.4 | 100 | 93.7 | 96.8 | 99.8 | 97.8 | 95.6 | 96.5 | 94.2 | 99.4 | 98.3 | 97.7 | 103 | > 10 | > 10 | > 10 | > 10 | > 10
10 | CCOC(=O)C1=CCCC[C@H]1S(=O)(=O)Nc1ccc(F)cc1Cl [resatorvid] | 0 | 0 | 0 | 0 | 0 | 104 | 95.6 | 109 | 110 | 98.6 | 95.2 | 103 | 97.6 | 88.4 | 98.4 | 94.8 | 104 | 92.9 | 111 | 96.2 | 100 | 97.7 | 96.9 | 99.6 | 94.7 | 98.4 | 98.9 | 93.6 | 99 | 96.1 | > 10 | > 10 | > 10 | > 10 | > 10
11 | O=C1c2cccc(O)c2C(=O)c2c(O)cccc21 [dantron] | 0 | 0.2 | 0.1 | 0 | 0 | 102 | 105 | 105 | 97.9 | 93.8 | 98.5 | 89.2 | 100 | 93.2 | 83.5 | 103 | 97.5 | 96.1 | 98.6 | 88.4 | 94.3 | 98.4 | 97.7 | 103 | 99.8 | 107 | 92.6 | 88.7 | 91.2 | 101 | > 10 | > 10 | > 10 | > 10 | > 10
12 | Cc1cc2nc3c(=O)[nH]c(=O)nc-3n(C)c2cc1C=O [Ro-08-2750] | 2.9 | 0 | 0.4 | 5.5 | 4.9 | 109 | 105 | 100 | 109 | 37.1 | 96.6 | 94.3 | 97.6 | 92.5 | 101 | 104 | 103 | 96 | 102 | 81.9 | 94.4 | 99.2 | 94.1 | 97.8 | 5.6 | 92.4 | 90 | 96.4 | 90.2 | 40 | 3.78 | > 10 | > 10 | 3 | 1.91
13 | Cc1ccc(C(=O)C(C)CN2CCCCC2)cc1 (stereo not given) [tolperisone] | 0.1 | 0 | 0 | 0 | 0 | 94.2 | 95 | 96.3 | 102 | 86.5 | 97.6 | 99.4 | 104 | 100 | 99.4 | 107 | 93.2 | 110 | 100 | 99.4 | 102 | 100 | 97.2 | 98.4 | 98.1 | 92.4 | 98.5 | 94.9 | 94.4 | 94.6 | > 10 | > 10 | > 10 | > 10 | > 10
14 | Nc1ncnc2c1c(COc1cccc(Cl)c1)nn2C1CCOCC1 | 0 | 0 | 0.6 | 0 | 0 | 91.3 | 89.1 | 109 | 91.8 | 99.4 | 96.5 | 96.5 | 97.6 | 89.3 | 112 | 95.4 | 104 | 95.3 | 97.2 | 84.2 | 92.5 | 98.1 | 94.9 | 96.9 | 96.4 | 89.2 | 99.2 | 99.7 | 100 | 91.3 | > 10 | > 10 | > 10 | > 10 | > 10
